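Compound exposure: 48 hours, 5 concentrations, 96-well plates. GI50 is the concentration that inhibits growth by half.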 Activity calls are given as the source filed them. No stated cut-off is given here; in the data, active = GI50 up to about 1.1 µM and inactive = higher.
Experiments:
Assay in all cases: NCI tumour cell line growth inhibition, 48 h
[1] = test system: 786-0
[2] = test system: A498
[3] = test system: HCT-116
[4] = test system: HL-60
[5] = test system: HT-29
[6] = test system: IGROV-1
[7] = test system: LOX IMVI
[8] = test system: M14
[9] = test system: MDA-N
[10] = test system: NCI-H226
[11] = test system: NCI/ADR-RES
[12] = test system: OVCAR-8
[13] = test system: PC-3
[14] = test system: SF-268
[15] = test system: SK-MEL-5
[16] = test system: SN12C
[17] = test system: TK-10
[18] = test system: UO-31
[19] = test system: NCI-H522

CCC(CCCN)Nc1cc(OC)cc2cccnc12 (centres undefined)
GI50 [1]: > 100 µM (inactive)
GI50 [2]: > 100 µM (inactive)
GI50 [3]: > 100 µM (inactive)
GI50 [4]: 21.9 µM (inactive)
GI50 [5]: 32.4 µM (inactive)
GI50 [6]: 87.3 µM (inactive)
GI50 [7]: > 100 µM (inactive)
GI50 [8]: 41.3 µM (inactive)
GI50 [9]: > 100 µM (inactive)
GI50 [10]: > 100 µM (inactive)
GI50 [11]: > 100 µM (inactive)
GI50 [12]: > 100 µM (inactive)
GI50 [13]: > 100 µM (inactive)
GI50 [14]: > 100 µM (inactive)
GI50 [15]: 85.1 µM (inactive)
GI50 [16]: > 100 µM (inactive)
GI50 [17]: > 100 µM (inactive)
GI50 [18]: 70 µM (inactive)

CC(C)C1CC=NN1C(=O)OC(C)(C)C (centres undefined)
GI50 [1]: > 100 µM (inactive)
GI50 [2]: > 100 µM (inactive)
GI50 [3]: > 100 µM (inactive)
GI50 [4]: > 100 µM (inactive)
GI50 [5]: > 100 µM (inactive)
GI50 [6]: > 100 µM (inactive)
GI50 [7]: > 100 µM (inactive)
GI50 [8]: > 100 µM (inactive)
GI50 [9]: > 100 µM (inactive)
GI50 [10]: > 100 µM (inactive)
GI50 [19]: > 100 µM (inactive)
GI50 [11]: > 100 µM (inactive)
GI50 [12]: > 100 µM (inactive)
GI50 [14]: > 100 µM (inactive)
GI50 [15]: > 100 µM (inactive)
GI50 [16]: > 100 µM (inactive)
GI50 [17]: > 100 µM (inactive)
GI50 [18]: > 100 µM (inactive)

Cc1c(C(=O)CC(=O)C(=O)Nc2ccc(Cl)c(Cl)c2)[n+]([O-])c2ccccc2[n+]1[O-]
GI50 [1]: 25.8 µM (inactive)
GI50 [2]: > 100 µM (inactive)
GI50 [3]: 19 µM (inactive)
GI50 [4]: 17.8 µM (inactive)
GI50 [5]: 29.9 µM (inactive)
GI50 [6]: 18.7 µM (inactive)
GI50 [7]: 21.1 µM (inactive)
GI50 [8]: 18.1 µM (inactive)
GI50 [10]: > 100 µM (inactive)
GI50 [19]: 18.9 µM (inactive)
GI50 [12]: 17.2 µM (inactive)
GI50 [14]: 29.1 µM (inactive)
GI50 [15]: 19.5 µM (inactive)
GI50 [16]: 23.8 µM (inactive)
GI50 [17]: 46.5 µM (inactive)
GI50 [18]: 55.1 µM (inactive)

O=S(=O)(c1cc(Cl)ccc1Cl)n1ccnc1
GI50 [1]: 54.2 µM (inactive)
GI50 [2]: 31 µM (inactive)
GI50 [3]: 31.3 µM (inactive)
GI50 [4]: 28.4 µM (inactive)
GI50 [5]: 29.2 µM (inactive)
GI50 [6]: 41.5 µM (inactive)
GI50 [7]: 37.7 µM (inactive)
GI50 [8]: 30.3 µM (inactive)
GI50 [10]: 14.5 µM (inactive)
GI50 [19]: 27.4 µM (inactive)
GI50 [11]: 20.2 µM (inactive)
GI50 [12]: 35.4 µM (inactive)
GI50 [13]: 47.8 µM (inactive)
GI50 [14]: 45.1 µM (inactive)
GI50 [15]: 18.8 µM (inactive)
GI50 [16]: 30.2 µM (inactive)
GI50 [17]: 24.1 µM (inactive)
GI50 [18]: 85.5 µM (inactive)

CC1CCC2(OC1)OC1CC3C4CC=C5CC(OC6OC(CO)C(OC7OC(C)C(OC8OC(C)C(O)C(O)C8O)C(O)C7O)C(O)C6OC6OC(C)C(O)C(O)C6O)CCC5(C)C4CCC3(C)C1C2C (centres undefined)
GI50 [1]: 1.07 µM (active)
GI50 [2]: 0.291 µM (active)
GI50 [3]: 0.521 µM (active)
GI50 [4]: 0.239 µM (active)
GI50 [5]: 1 µM (active)
GI50 [6]: 1.3 µM (inactive)
GI50 [7]: 0.185 µM (active)
GI50 [8]: 1.05 µM (active)
GI50 [9]: 0.4 µM (active)
GI50 [10]: 1.36 µM (inactive)
GI50 [19]: 0.643 µM (active)
GI50 [12]: 0.326 µM (active)
GI50 [13]: 0.724 µM (active)
GI50 [14]: 0.56 µM (active)
GI50 [15]: 1.43 µM (inactive)
GI50 [16]: 0.267 µM (active)
GI50 [17]: 1.39 µM (inactive)
GI50 [18]: 0.216 µM (active)

CC(C)C(NC(=O)Oc1ccccc1)C(=O)NC1c2c(Br)sc(Br)c2C(=O)C1O (centres undefined)
GI50 [1]: 8.79 µM (inactive)
GI50 [2]: > 25 µM (inactive)
GI50 [3]: 3.97 µM (inactive)
GI50 [4]: 9.12 µM (inactive)
GI50 [5]: 4.2 µM (inactive)
GI50 [6]: 4.47 µM (inactive)
GI50 [7]: 4.98 µM (inactive)
GI50 [8]: 4.58 µM (inactive)
GI50 [9]: 11.6 µM (inactive)
GI50 [10]: > 25 µM (inactive)
GI50 [11]: 5.87 µM (inactive)
GI50 [12]: 4.6 µM (inactive)
GI50 [13]: 8.53 µM (inactive)
GI50 [14]: 6.24 µM (inactive)
GI50 [15]: 4.53 µM (inactive)
GI50 [16]: 5.62 µM (inactive)
GI50 [17]: 8.49 µM (inactive)
GI50 [18]: 9.64 µM (inactive)

CN1c2ccccc2C(=O)NC12CCNCC2
GI50 [1]: > 100 µM (inactive)
GI50 [2]: > 100 µM (inactive)
GI50 [3]: > 100 µM (inactive)
GI50 [4]: > 100 µM (inactive)
GI50 [5]: > 100 µM (inactive)
GI50 [6]: > 100 µM (inactive)
GI50 [7]: > 100 µM (inactive)
GI50 [8]: > 100 µM (inactive)
GI50 [10]: > 100 µM (inactive)
GI50 [11]: > 100 µM (inactive)
GI50 [12]: > 100 µM (inactive)
GI50 [14]: > 100 µM (inactive)
GI50 [15]: > 100 µM (inactive)
GI50 [17]: > 100 µM (inactive)
GI50 [18]: > 100 µM (inactive)

Cc1[nH]c2[nH]c(=S)nc(NC(N)=S)c2c1Cc1ccccc1
GI50 [1]: 26.8 µM (inactive)
GI50 [2]: > 100 µM (inactive)
GI50 [3]: 31.8 µM (inactive)
GI50 [4]: 13.6 µM (inactive)
GI50 [5]: 22.3 µM (inactive)
GI50 [6]: 59 µM (inactive)
GI50 [7]: 19.6 µM (inactive)
GI50 [8]: 42.3 µM (inactive)
GI50 [9]: 22.7 µM (inactive)
GI50 [10]: > 100 µM (inactive)
GI50 [11]: 48.8 µM (inactive)
GI50 [12]: 51.9 µM (inactive)
GI50 [13]: 47 µM (inactive)
GI50 [14]: 43.8 µM (inactive)
GI50 [15]: 13.4 µM (inactive)
GI50 [16]: > 100 µM (inactive)
GI50 [17]: 62.8 µM (inactive)
GI50 [18]: 22.8 µM (inactive)
